Holding throughout (type): cell-based
The target in one assay is T1, human TLR7 (Homo sapiens, UniProt Q9NYK1).
T1 construct: host or cells: HEK-Blue cells
T1 sequence (Q9NYK1 27-1049): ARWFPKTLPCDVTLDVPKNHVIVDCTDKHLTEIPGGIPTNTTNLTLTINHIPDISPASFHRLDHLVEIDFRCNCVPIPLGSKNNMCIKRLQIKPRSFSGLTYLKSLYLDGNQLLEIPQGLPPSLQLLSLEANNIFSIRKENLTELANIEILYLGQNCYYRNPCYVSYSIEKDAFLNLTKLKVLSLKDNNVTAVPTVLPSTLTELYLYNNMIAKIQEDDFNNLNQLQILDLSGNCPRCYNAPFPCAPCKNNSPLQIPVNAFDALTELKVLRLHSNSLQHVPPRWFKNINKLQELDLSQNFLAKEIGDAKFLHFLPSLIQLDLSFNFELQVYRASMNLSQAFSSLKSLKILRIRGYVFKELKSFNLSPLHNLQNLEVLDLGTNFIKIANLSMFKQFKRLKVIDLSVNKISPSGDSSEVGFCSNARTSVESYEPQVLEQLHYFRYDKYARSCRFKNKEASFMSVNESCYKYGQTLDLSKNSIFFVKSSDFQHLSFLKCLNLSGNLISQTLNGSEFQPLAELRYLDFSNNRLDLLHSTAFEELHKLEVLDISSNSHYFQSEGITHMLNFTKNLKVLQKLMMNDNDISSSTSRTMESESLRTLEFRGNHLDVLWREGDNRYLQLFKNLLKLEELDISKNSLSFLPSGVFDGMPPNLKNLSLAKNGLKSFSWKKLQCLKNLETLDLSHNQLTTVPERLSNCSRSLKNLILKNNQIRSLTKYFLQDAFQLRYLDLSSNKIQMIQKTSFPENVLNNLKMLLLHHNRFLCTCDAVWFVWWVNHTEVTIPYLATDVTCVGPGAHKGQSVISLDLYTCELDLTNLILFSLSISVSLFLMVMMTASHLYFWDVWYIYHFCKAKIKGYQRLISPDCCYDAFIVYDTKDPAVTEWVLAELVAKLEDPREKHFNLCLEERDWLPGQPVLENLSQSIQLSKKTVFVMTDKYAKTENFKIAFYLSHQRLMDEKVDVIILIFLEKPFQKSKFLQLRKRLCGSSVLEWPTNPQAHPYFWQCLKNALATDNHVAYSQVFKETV
Kind of assay: TLR7 inhibition reporter assay (HEK-Blue, SEAP). The note with it: HEK-Blue cells overexpressing human TLR7, gardiquimod 7.5 μM, 22 hour incubation. In a few lines: (§1)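 Agonists used: gardiquimod 7.5 μM (TLR7), R848 15.9 μM (TLR8), ODN2006 5 nM (TLR9), added after 30 min room-temperature compound pre-treatment (0.05 nM–50 μM) of receptor-overexpressing HEK-Blue cells. SEAP reporter (NF-κB/AP-1 driven) read after 22 h at 37 °C; inhibition scaled between agonist+DMSO and reference-inhibitor wells.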

A further assay concerns the target T2, human TLR8 (Homo sapiens, UniProt Q9NR97).
T2 construct: host or cells: HEK-Blue cells
T2 sequence (Q9NR97 27-1041): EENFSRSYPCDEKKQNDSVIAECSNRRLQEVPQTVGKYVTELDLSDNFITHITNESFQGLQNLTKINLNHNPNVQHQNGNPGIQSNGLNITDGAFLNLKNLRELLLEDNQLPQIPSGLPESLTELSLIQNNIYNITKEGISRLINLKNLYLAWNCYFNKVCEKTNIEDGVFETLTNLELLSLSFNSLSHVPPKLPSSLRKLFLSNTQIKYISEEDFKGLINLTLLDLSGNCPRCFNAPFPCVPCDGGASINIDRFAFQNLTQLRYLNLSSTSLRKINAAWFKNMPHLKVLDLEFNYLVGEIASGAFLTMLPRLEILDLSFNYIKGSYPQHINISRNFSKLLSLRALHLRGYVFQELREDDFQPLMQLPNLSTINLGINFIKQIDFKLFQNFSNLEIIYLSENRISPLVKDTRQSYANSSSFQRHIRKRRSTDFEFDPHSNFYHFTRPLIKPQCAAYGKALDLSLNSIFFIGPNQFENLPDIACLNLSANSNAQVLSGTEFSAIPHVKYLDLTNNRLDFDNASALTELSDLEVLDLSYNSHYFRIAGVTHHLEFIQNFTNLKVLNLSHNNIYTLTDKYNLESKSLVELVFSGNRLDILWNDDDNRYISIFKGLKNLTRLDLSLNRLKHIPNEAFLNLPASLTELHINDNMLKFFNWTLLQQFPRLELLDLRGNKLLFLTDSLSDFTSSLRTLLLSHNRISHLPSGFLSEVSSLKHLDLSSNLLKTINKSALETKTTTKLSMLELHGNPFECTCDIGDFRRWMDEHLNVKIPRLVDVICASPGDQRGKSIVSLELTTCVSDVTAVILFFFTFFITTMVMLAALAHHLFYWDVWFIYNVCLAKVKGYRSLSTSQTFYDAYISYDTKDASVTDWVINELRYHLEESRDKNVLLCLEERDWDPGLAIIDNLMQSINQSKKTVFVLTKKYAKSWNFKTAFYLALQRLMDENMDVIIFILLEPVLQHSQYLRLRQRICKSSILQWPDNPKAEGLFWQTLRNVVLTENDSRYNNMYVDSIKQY
Nature of the assay: TLR8 inhibition reporter assay (HEK-Blue, SEAP). The note with it: HEK-Blue cells overexpressing human TLR8, R848 15.9 μM, 22 hour incubation. In a few lines: as §1
Background: In a reporter assay the amount or activity of a reporter protein is the signal.

A further assay addresses T3, human TLR9 (Homo sapiens, UniProt Q9NR96).
T3 construct: host or cells: HEK-Blue cells
T3 sequence (Q9NR96 26-1032): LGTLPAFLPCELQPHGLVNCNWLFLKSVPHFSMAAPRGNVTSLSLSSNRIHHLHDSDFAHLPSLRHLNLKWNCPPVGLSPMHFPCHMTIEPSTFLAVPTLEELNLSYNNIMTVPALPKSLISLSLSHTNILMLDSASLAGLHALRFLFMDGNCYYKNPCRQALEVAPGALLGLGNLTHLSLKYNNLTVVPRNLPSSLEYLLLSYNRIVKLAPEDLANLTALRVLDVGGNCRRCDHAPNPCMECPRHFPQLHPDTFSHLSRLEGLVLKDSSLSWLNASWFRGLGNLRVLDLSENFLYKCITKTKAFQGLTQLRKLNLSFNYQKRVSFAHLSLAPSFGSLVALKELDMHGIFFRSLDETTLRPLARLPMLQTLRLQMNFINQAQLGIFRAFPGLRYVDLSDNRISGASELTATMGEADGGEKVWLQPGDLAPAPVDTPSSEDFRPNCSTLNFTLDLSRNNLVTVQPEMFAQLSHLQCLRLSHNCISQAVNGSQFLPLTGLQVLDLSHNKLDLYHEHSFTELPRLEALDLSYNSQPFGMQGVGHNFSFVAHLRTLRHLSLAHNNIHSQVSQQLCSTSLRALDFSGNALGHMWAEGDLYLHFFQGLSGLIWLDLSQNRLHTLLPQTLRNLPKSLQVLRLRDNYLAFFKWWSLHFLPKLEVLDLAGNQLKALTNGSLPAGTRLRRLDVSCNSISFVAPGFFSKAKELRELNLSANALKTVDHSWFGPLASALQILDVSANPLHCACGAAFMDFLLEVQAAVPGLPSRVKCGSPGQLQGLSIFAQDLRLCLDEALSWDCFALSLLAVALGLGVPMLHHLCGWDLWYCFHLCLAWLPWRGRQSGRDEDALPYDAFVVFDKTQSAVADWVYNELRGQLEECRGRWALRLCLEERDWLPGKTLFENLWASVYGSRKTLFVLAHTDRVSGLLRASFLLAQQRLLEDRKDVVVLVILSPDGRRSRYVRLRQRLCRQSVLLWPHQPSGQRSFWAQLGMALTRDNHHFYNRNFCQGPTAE
Nature of the assay: TLR9 inhibition reporter assay (HEK-Blue, SEAP). The note with it: HEK-Blue cells overexpressing human TLR9, ODN2006 5 nM, 22 hour incubation. The procedure, abridged:
as §1

The values that follow come from US11130756B2, “[1,2,4]Triazolo[4,3-A]pyridinyl substituted indole compounds” (BRISTOL-MYERS SQUIBB COMPANY, priority 2017, dated 2021).

`Cc1c(-c2[nH]c3ccc(C4CCN(C5CCOC5)CC4)cc3c2C(C)C)cn2cnnc2c1C` (stereo not drawn) [Example 93, 6-(3-isopropyl-5-(1-(tetrahydrofuran-3-yl)piperidin-4-yl)-1H-indol-2-yl)-7,8-dimethyl-[1,2,4]triazolo[4,3-a)pyridine]: the figures for the IC50 on human TLR7, against human TLR8 and against human TLR9 were 1.6 nM, 4 nM and 2800 nM, respectively.

Turning to `COc1cc(-c2[nH]c3ccc(C4CCN(C5CCOC5)CC4)cc3c2C(C)C)cn2cnnc12` (stereo not drawn) [Example 94, 6-(3-isopropyl-5-(1-(tetrahydrofuran-3-yl)piperidin-4-yl)-1H-indol-2-yl)-8-methoxy-[1,2,4]triazolo[4,3-a]pyridine], the IC50 at human TLR7 worked out at 0.6 nM; against human TLR8, 11.9 nM; at human TLR9, 914 nM.

As to `COc1cc(-c2[nH]c3ccc(C4CCN(C5CCC(F)(F)CC5)CC4)cc3c2C(C)C)cn2cnnc12` [Example 95, 6-(5-(1-(4,4-difluorocyclohexyl)piperidin-4-yl)-3-isopropyl-1H-indol-2-yl)-8-methoxy-[1,2,4] triazolo[4,3-a]pyridine], the results for the concentration for half-maximal inhibition (IC50) at human TLR7, at human TLR8 and against human TLR9 were 0.7 nM, 20.5 nM and 2080 nM, respectively.

On to `COc1cc(-c2[nH]c3ccc(C4CCN(C)CC4)cc3c2C(C)C)cn2cnnc12` [Example 96, 6-(3-isopropyl-5-(1-methylpiperidin-4-yl)-1H-indol-2-yl)-8-methoxy-[1,2,4]triazolo[4,3-a)pyridine], for which the IC50 is 1.2 nM against human TLR7, 35.8 nM at human TLR8 and 376 nM against human TLR9.

As for `COc1cc(-c2[nH]c3ccc(C4CCN(C(C)C)CC4)cc3c2C(C)C)cn2cnnc12` [Example 97, 6-(3-isopropyl-5-(1-isopropylpiperidin-4-yl)-1H-indol-2-yl)-8-methoxy-[1,2,4]triazolo[4,3-a]pyridine], the 50% inhibitory concentration (IC50) on human TLR7 was 2.3 nM; against human TLR8, 56.1 nM; against human TLR9 it was 768 nM.

As to `Cc1c(-c2[nH]c3ccc(C4CCN(C)CC4)cc3c2C(C)C)cn2cnnc2c1C` [Example 98, 6-(3-isopropyl-5-(1-methylpiperidin-4-yl)-1H-indol-2-yl)-7,8-dimethyl-[1,2,4]triazolo[4,3-a]pyridine], the results for the IC50 at human TLR7, against human TLR8 and against human TLR9 were 1 nM, 12.1 nM and 1790 nM, respectively.

For the compound `Cc1c(-c2[nH]c3ccc(C4CCN(C(C)C)CC4)cc3c2C(C)C)cn2cnnc2c1C` [Example 99, 6-(3-isopropyl-5-(1-isopropylpiperidin-4-yl)-1H-indol-2-yl)-7,8-dimethyl-[1,2,4]triazolo [4,3-a]pyridine], the figures for the IC50 on human TLR7, on human TLR8 and against human TLR9 were 1.7 nM, 8.3 nM and 2220 nM, respectively.

`Cc1c(-c2[nH]c3ccc(C4CCN(C5CC(C)(C)OC(C)(C)C5)CC4)cc3c2C(C)C)cn2cnnc2c1C` [Example 100, 6-(3-isopropyl-5-(1-(2,2,6,6-tetramethyltetrahydro-2H-pyran-4-yl)piperidin-4-yl)-1H-indol-2-yl)-7,8-dimethyl-[1,2,4]triazolo[4,3-a]pyridine]: the IC50 was determined as 13.7 nM at human TLR7, 31.6 nM at human TLR8 and 4440 nM against human TLR9.

As for `Cc1c(-c2[nH]c3ccc(C4CCN(C5CCC(F)(F)CC5)CC4)cc3c2C(C)C)cn2cnnc2c1C` [Example 101, 6-(5-(1-(4,4-difluorocyclohexyl)piperidin-4-yl)-3-isopropyl-1H-indol-2-yl)-7,8-dimethyl-[1,2,4] triazolo[4,3-a]pyridine], the values for the concentration for half-maximal inhibition (IC50) at human TLR7, against human TLR8 and against human TLR9 were 12.3 nM, 12.4 nM and 1440 nM, respectively.

As to `Cc1cc(-c2[nH]c3ccc(C4CCN(C(=O)CN(C)C)CC4)cc3c2C(C)C)cn2cnnc12` [Example 104, 2-(dimethylamino)-1-(4-(3-isopropyl-2-(8-methyl-[1,2,4]triazolo[4,3-a]pyridin-6-yl)-1H-indol-5-yl)piperidin-1-yl)ethanone], the IC50 at human TLR7 was determined as 2.5 nM; on human TLR8 it was 14.6 nM; against human TLR9 it was 917 nM.

`CC(C)c1c(-c2ccc3nncn3c2)[nH]c2ccc(C3CCN(C(=O)CN(C)C)CC3)cc12` [Example 105, 1-(4-(2-([1,2,4]triazolo[4,3-a]pyridin-6-yl)-3-isopropyl-1H-indol-5-yl)piperidin-1-yl)-2-(dimethylamino)ethan-1-one]: the half-inhibitory concentration (IC50) at human TLR7 turned out to be 5.9 nM; against human TLR8 it was 134 nM; at human TLR9, 188 nM.

`Cc1nnc2ccc(-c3[nH]c4ccc(C5CCN(C(=O)CN(C)C)CC5)cc4c3C(C)C)cn12` [Example 106, 2-(dimethylamino)-1-(4-(3-isopropyl-2-(3-methyl-[1,2,4]triazolo[4,3-a]pyridin-6-yl)-1H-indol-5-yl)piperidin-1-yl)ethan-1-one]: the figures for the IC50 against human TLR7, against human TLR8 and against human TLR9 were 43 nM, 39.1 nM and 382 nM, respectively.

The term IC50 denotes the concentration that gives 50% inhibition.
